Here are results for one compound from paper PMC6522941, “Design, synthesis, and anticancer evaluation of novel quinoline derivatives of ursolic acid with hydrazide, oxadiazole, and thiadiazole moieties as potent MEK inhibitors” (Journal of Enzyme Inhibition and Medicinal Chemistry, 2019).

One experiment deals with MDA-MB-231 cells. Nature of the experiment: MTT cytotoxic assay, MDA-MB-231. It counts as cell-based, human. Conditions: Homo sapiens, MDA-MB-231, 72 h. Here is the method:
(§1) Human breast cancer cell line (MDA-MB-231), cervical carcinoma cell line (HeLa), the liver cancer cell line (SMMC-7721) and normal hepatocyte cell line (QSG-7701) were maintained in Dulbecco Modified Eagle Medium (DMEM) containing 4.0 mM L-Glutamine and 4500 mg/L Glucose supplemented with 10% (v/v) foetal bovine serum (FBS) and 100 U/mL penicillin/streptomycin at 37 °C in humidified atmosphere of 5% CO2 and 95% air.
(§2) Exponentially growing MDA-MB-231, Hela and SMMC-7721 cell lines were seeded into 96-well plate for 100 μL and treated with different concentrations of the synthetic compounds for 72 h, and then 10 μL of MTT (10 mg/mL) was added and incubation for 3 ∼ 4 h at 37 °C. The generated purple formazan crystals from viable can be dissolved by adding 100 μL DMSO. The plates were swirled gently for 5 min and quantified by measuring the OD of the plates at the wavelength of 540 nm. Each concentration was repeated in three wells and the same experimental condition was provided for all compounds. The results were expressed as IC50 values with standard deviations, which was defined as the concentration at which 50% survival of cells was discerned. Etoposide was co-assayed as positive control.
(§3) The in vitro cytotoxic activity of derivatives 3a–d, 4a–h, 5a–h, and 6a–h were evaluated by MTT assay against human breast cancer cell line (MDA-MB-231), cervical carcinoma cell line (HeLa), hepatocarcinoma cell line (SMMC-7721) and human normal hepatocyte cell line (QSG-7701). The anticancer drug etoposide was co-assayed as the positive control. All tested compounds were dissolved in DMSO and the stock solutions were diluted by DMEM medium before treatment of the cultured cells.
In general terms: Formazan colour is commonly taken as a measure of viable cells.

In experiment [1] the test system is HeLa cells. Nature of the experiment: Annexin V-FITC/PI dual staining apoptosis assay. It counts as cell-based, human. Conditions: 48 h, control 6.44. Here is the method: The extent of apoptosis was quantitatively measured using Annexin V-FITC/PI dual staining assay. HeLa cells were seeded into a six-well plate at 5 × 10^5 cells per well in 10% foetal calf serum (FBS)-DMEM into six-well plates and treated with different concentrations of the indicated compound 4d for 48 h. The cells were detached with 0.25% trypsin, washed with ice-cold PBS for twice and then resuspended in 1 × Binding buffer ([…]). The cells were stained with 5 μL of Annexin V-FITC and 5 μL of PI ([…]) to each tube. The cells were gently vortexed and incubated in the dark at room temperature for 15 min and then keep them at 4 °C. The samples were analysed by a flow cytometer (Becton-Dickinson FACSCalibur, Totowa, NJ, USA) and data were analysed using the FlowJo software.
The Annexin V-FITC/PI dual staining assay on HeLa cells treated with compound 4d was carried out to examine the association of compound 4d-mediated cytotoxicity with induction of apoptosis.

Experiment [2] relates to HeLa cells. Briefly: MTT cytotoxic assay, HeLa. It is filed as cell-based. The conditions noted are these: Homo sapiens, 72 h. Here is the method: as §1, §2, §3
A further experiment deals with T1, MEK1 (Homo sapiens, UniProt Q02750).
T1 construct: purchased Carna Biosciences, Kobe, Japan
T1 sequence (Q02750 whole entry): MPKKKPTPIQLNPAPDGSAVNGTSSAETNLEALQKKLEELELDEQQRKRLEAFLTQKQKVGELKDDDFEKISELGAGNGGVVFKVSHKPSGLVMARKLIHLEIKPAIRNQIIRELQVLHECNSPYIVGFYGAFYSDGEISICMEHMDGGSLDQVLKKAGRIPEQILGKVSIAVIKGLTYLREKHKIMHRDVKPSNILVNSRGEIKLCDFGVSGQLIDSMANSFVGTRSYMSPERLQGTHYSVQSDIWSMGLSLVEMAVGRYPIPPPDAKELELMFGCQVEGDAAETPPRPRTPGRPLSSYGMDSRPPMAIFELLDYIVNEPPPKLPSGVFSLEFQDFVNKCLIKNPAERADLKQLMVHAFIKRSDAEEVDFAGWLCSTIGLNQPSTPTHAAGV
Nature of the experiment: In vitro MEK1 kinase assay (ADP-Glo). It counts as biochemical. Conditions: recombinant GST-MEK1, GST-ERK2 (inactive) substrate, 10 μM ATP. As for the experimental part: An in vitro kinase assay of MEK1 was performed using ADP-Glo kinase assay (Promega, Madison, WI, USA) according to the manufacturer’s protocol. […] Reactions were stopped by adding 5 μL of ADP-Glo reagent to each well. After incubating at 22 °C for 40 min, 10 μL of the kinase detection reagent was added and the plates were incubated for another 30 min at 22 °C in the dark. The reaction mixture was analysed by EnSpire (PerkinElmer, Waltham, MA, USA).
The Raf/MEK/ERK pathway is the downstream of Ras activation, and the abnormal expression or phosphorylation of the associated proteins is essential for cancer cell proliferation. In this pathway, MEK kinase is an important anticancer target because of its key roles in regulating the cancer cell apoptosis and oncogenic transformation[51]^,[52]. Among MEK proteins, MEK1 and MEK2 are known as substrate-specific kinases which phosphorylate their downstream kinase ERK1/2.
(ADP-Glo turns the ADP formed in a reaction into a luminescent signal.)

The subject of experiment [3] is HeLa cells. Briefly: ROS generation assay (DCFH-DA). The conditions noted are these: 0.2 μM, 48 h. It counts as cell-based, human. As for the experimental part:
ROS generation assay was performed by using the reactive oxygen species assay kit (Beyotime Biotech., Nantong, China). Intracellular ROS generation was tested through dichlorodihydro fluorescein diacetate (DCFH-DA) assay. DCFH-DA is taken up by HeLa cells, and then activated by esterase-mediated cleavage of acetate to form DCFH, which is trapped in the cells. DCFH is converted to fluorescein DCF in the presence of ROS. HeLa cells were seeded in six-well plates and incubated with different concentrations of compound 4d for 48 h. After removing the compound solution, cells were treated with 10 μM of DCFH-DA at 37 °C for 20 min. Subsequently, the cells were washed with PBS for three times and then exposed to light. Immediately after light exposure, the fluorescence intensity of dichlorofluorescein (DCF) was measured with excitation at 488 nm and emission at 525 nm by a flow cytometry (Becton-Dickinson FACSCalibur, Totowa, NJ, USA).
ROS has been reported to be involved in early stages of apoptosis in many cellular systems. […] HeLa cells were exposed to compound 4d at 0 ∼ 0.2 μM concentrations for 48 h and the intracellular fluorescence intensity was quantitatively analysed by flow cytometry. […]

Molecules are shown by their SMILES.

The term IC50 denotes the concentration needed to halve the response being measured. Regarding `CC(=O)NNC(=O)C12CCC(C)C(C)C1C1=CCC3C4(C)Cc5cc6cc(Cl)ccc6nc5C(C)(C)C4CCC3(C)C1(C)CC2` (centres unmarked) [Compound 4d, N-[5′-chloro-ursa-12-en-(2,3)-quinoline-28-oyl]-acetohydrazide], the IC50 in the experiment with MDA-MB-231 cells is 0.12 ± 0.01 µM; with HeLa cells [2], 0.08 ± 0.01 µM; at MEK1, 64 nM. In addition, the “percentage of early and late apoptotic cells” value in the experiment with HeLa cells [1] (0.05 μM) is reported as 37.56%; in the experiment with HeLa cells [1] (0.1 μM), 58.31%; with HeLa cells [1] (0.2 μM) it was 74.22%. For the same compound, in the experiment on HeLa cells [3], the “increase of mean fluorescence intensity compared to the control group” value was found to be 84%. Besides, the “% relative ROS raised cells” value in the experiment with HeLa cells [3] (control 13.18) was determined as 49.66%.
